Measurements published in patent publication US5698529A, “Chemotherapeutic compositions” (Supratek Pharma, Inc., priority 1996, dated 1997).

Test system: human small cell carcinoma of lung (H-69)
Test: Cytotoxicity to human small cell carcinoma of lung (H-69), Example 1
Type: cell-based
Experimental: A. A block copolymer of poly(oxyethylene)-poly(oxypropylene) in which N=0.25 (Pluronic F-68) is diluted with RPMI 1640 medium to a final concentration of 2.0% at 4° C. The mixture is incubated for 30 minutes at 37° C. and then sterilely filtered through a 0.22 μm filter. An equal volume of a solution of 200 μg daunorubicin in RPMI 1640 medium is added and this mixture is incubated for 30 minutes at 37° C.
B. Human ovarian carcinoma cells (CRL157) are precultured in 1% solution of the same block copolymer but without daunorubicin in RPMI 1640 medium supplemented with 10% calf fetal serum. The preparation of part A is added and the mixture is incubated for 60 minutes at 37° C. and the cells then washed three times with RPMI 1640 and cultured in RPMI 1640 supplemented with 10% calf fetal serum for 3 days {Prep. A}. Cytotoxicity is measured, both for this preparation and a parallel preparation of free daunorubicin {Prep. B}, using the method of Alley et al., Cancer Res., 48, 589-601 (1988). The results are as follows:
Following the same procedure, cytotoxicity is determined against human small cell carcinoma of lung (H-69): […]

Compound: COc1cccc2c1C(=O)c1c(O)c3c(c(O)c1C2=O)C[C@@](O)(C(C)=O)C[C@@H]3O[C@H]1C[C@H](N)[C@H](O)[C@H](C)O1 [Prep. B, daunorubicin]
- inhibition at 0.0032 µg/mL: 20%
- inhibition at 0.016 µg/mL: 42%
- inhibition at 0.08 µg/mL: 69%
- inhibition at 0.4 µg/mL: 91%
- inhibition at 2 µg/mL: 100%
- inhibition at 10 µg/mL: 100%
- inhibition at 50 µg/mL: 100%
